Several values for one entry are separate records, joined by “and”; a condition that tells them apart may be missing. Equal entries are not always repeated. Entries after “also recorded” stand apart in the source; their conditions may differ. Structures can show the parent of a compound that is named as a salt. Where two headings read alike, the source gives them in different places.
Legend:
[1] = system: VSV; type: cell-based
[2] = system: kunjin virus; type: cell-based
[3] = system: a viral challenge; type: cell-based; settings: for EC50: read-out: µM of test compounds # (concentration of test compound alone to protect Vero cells against a viral challenge by approximately 50%)
[4] = cited from earlier work
[5] = system: dengue virus; type: cell-based
[6] = system: yellow fever virus; type: cell-based
[7] = system: kunjin virus; type: cell-based; remark: listed apart in the source
[8] = system: VSV; type: cell-based; remark: listed apart in the source

Compound | CI [1] | Fold enhancement of antiviral activity [3] [fold] | EC50 [3] [µM] | CI [6] | also measured
Nc1nccc2c1ncn2[C@@H]1C=C(CO)[C@@H](O)[C@H]1O [3-DAN, 3-deazaneplanocin A] | 0.88 and 0.85 and 0.79 and 0.80 and 0.92 and 0.90 and 0.84 |  |  |  | 
O=c1cnn([C@@H]2O[C@H](CO)[C@@H](O)[C@H]2O)c(=O)[nH]1 [6-AU, 6-azauridine] | 0.49 and 0.59 |  |  |  | 
Nc1ccn([C@@H]2C=C(CO)[C@@H](O)[C@H]2O)c(=O)n1 [CPE-C, cyclopentenyl cytosine] | 0.98 and 0.81 and 0.80 and 0.97 and 0.75 and 0.79 and 0.76 and 0.74 | 10 | ~0.1 |  | enhancement of the antiviral activity of interferon [2]: 10 fold and 5 fold; deaths with refractory hypotension ([4]; hypotensive patients at 4.7 mg/m^2 per hour of CPE-C): Two of the four hypotensive patients died; hypotension ([4]; patients receiving ≤2.5 mg/m^2 per h CPE-C): Hypotension was not seen; also recorded: no hypotension was observed; hypotension ([4]; patients who received 4.7 mg/m^2 per hour of CPE-C, 24 to 48 hours after completion of infusion): Four of the eleven patients
C#Cc1c(C(N)=O)ncn1[C@@H]1O[C@H](CO)[C@@H](O)[C@H]1O [EICAR, 5-ethynyl-1-β-D-ribofuranosylimidazole-4-carboxamide] |  | 2 | ~1 |  | 
Cc1nc(N)nc(N)c1-c1ccc(Cl)c(Cl)c1 [NSC 7364] |  |  |  |  | CI [5]: 0.834 and 0.813 and 0.979; IC50 ([5]; read-out: NSC 7364 IC50): 372 nM
NC(=O)c1[nH]nc([C@@H]2O[C@H](CO)[C@@H](O)[C@H]2O)c1O [NSC 143095] |  |  |  | 0.71 and 0.57 and 0.69 | 
CCc1c(CNc2ccc(C(=O)NC(CC(=O)O)C(=O)O)cc2)ccc2nc(N)nc(N)c12 (stereo not drawn) [NSC 184692] |  |  |  |  | enhanced the anti-viral effect of human IFNβ [5]: 10 fold; EC50 ([5]; read-out: ED50 against dengue virus): 0.12 nM
CCc1nc(N)nc(N)c1-c1ccc(Cc2ccccc2)c([N+](=O)[O-])c1 [NSC 382046] |  |  |  |  | CI [7]: 0.99 and 0.96 and 0.83 and 0.75 and 0.70; CI [5]: 0.758 and 0.672
Nc1ncnc2c1ncn2[C@@H]1C=C(CO)[C@@H](O)[C@H]1O [Neplanocin A, neplanocin A] | 0.80 and 0.56 and 0.40 and 0.67 and 0.71 |  |  | 0.63 and 0.71 and 0.59 | 
NC(=O)c1c[se]c([C@@H]2O[C@H](CO)[C@@H](O)[C@H]2O)n1 [Selenofurin, 2-β-D-ribofuranosylselenazole-4-carboxamide] |  |  |  | 0.94 and 0.65 and 0.53 and 0.62 and 0.49 | 
NC(=O)c1csc([C@@H]2O[C@H](CO)[C@@H](O)[C@H]2O)n1 [Tiazofurin, 2-β-D-ribofuranosylthiazole-4-carboxamide] |  |  |  | 0.85 and 0.68 and 0.51 and 0.87 | 
NC12CC3CC(CC(C3)C1)C2 [amantadine, amantadine hydrochloride] |  | 50 | ~1 |  | CI ([1]; hydrochloride): 0.79 and 0.76 and 0.62 and 0.66 and 0.87; CI [7]: 0.76
COc1c(C)c2c(c(O)c1C/C=C(\C)CCC(=O)O)C(=O)OC2 [mycophenolic acid] |  | 3 | ~0.1 |  | IC50 ([1]; read-out: MPA IC50): 200 nM; CI [8]: 0.48 and 0.46 and 0.56
